Earlier results on 1 compound are cited in patent US10081628B2, “Apoptosis-inducing agents for the treatment of cancer and immune and autoimmune diseases” (AbbVie Inc., priority 2013, dated 2018).

SMILES strings stand for the structures.

The subject of the series is RS4;11 cells. Particulars: Blood, 2008, Vol. 111, 2300-2309; cited from earlier work.

`CN(C)CC[C@H](CSc1ccccc1)Nc1ccc(S(=O)(=O)NC(=O)c2ccc(N3CCN(Cc4ccccc4-c4ccc(Cl)cc4)CC3)cc2)cc1[N+](=O)[O-]` [ABT-737, N-(4-(4-((4′-chloro(1,1′-biphenyl)-2-yl)methyl)piperazin-1-yl)benzoyl)-4-(((1R)-3-(dimethylamino)-1-((phenylsulfanyl)methyl)propyl)amino)-3-nitrobenzenesulfonamide]: the “sensitivity of RS4;11 cells to the Bcl-2 family member inhibitor” value is “sensitive”.
